# In PMC10740156, “Discovery of potential WEE1 inhibitors via hybrid virtual screening” (Frontiers in Pharmacology, 2023):
# Where a name gives a salt, the structure may show the parent alone.
# Tests used:
# A549 cells [1] = experiment: Cell apoptosis analysis (Annexin V/PI flow cytometry); type: cell-based, human; conditions: 2 μM, 72 h; for percentage of apoptotic cells (early apoptosis + late apoptosis): blank control 9.86%
# Protocol: (§1) For apoptosis detection, Cells were performed with Pharmingen FITC Annexin V Detection KitⅠ(BD Bioscience, Oxford, UK). Briefly, Cells were harvested and washed once with 1×binding buffer and then incubated with Annexin V and Propidium Iodide (PI) for 15 min in the dark at 37°C.
# (§2) All samples were acquired by flow cytometry (FACS CantoⅡ, BD Bioscience) and analysed with Flowjo software version 10.4.
# PC9 cells [2] = experiment: as above; type: cell-based, human; conditions: 500 nM, 72 h; for percentage of apoptotic cells (early apoptosis + late apoptosis): blank control 13.24%
# Protocol: as §1, §2
# A549 cells [3] = experiment: Cell cycle analysis (PI staining flow cytometry); type: cell-based, human; conditions: 2 μM, 24 h
# Protocol: (§3) For cell cycle detection, Cells were harvested and gently washed with PBS, and fixed with 70% cold ethanol −20°C overnight. After centrifugation, Cells were retained for precipitation and incubated with PI/RNase Staining Buffer (BD Bioscience, Oxford, United Kingdom) for 15 min in the dark at 37°C.
# as §2
# WEE1 kinase = WEE1 kinase (Homo sapiens, UniProt P30291); experiment: Inhibitory activity assay (ADP-Glo kinase assay); type: biochemical; conditions: for IC50: WEE1 kinase; for Inhibition Rate / inhibition at 25 µM: compound 25 μM, relative inhibition rate, Staurosporine (10 µM) as positive control
# WEE1 kinase, sequence (P30291 whole entry): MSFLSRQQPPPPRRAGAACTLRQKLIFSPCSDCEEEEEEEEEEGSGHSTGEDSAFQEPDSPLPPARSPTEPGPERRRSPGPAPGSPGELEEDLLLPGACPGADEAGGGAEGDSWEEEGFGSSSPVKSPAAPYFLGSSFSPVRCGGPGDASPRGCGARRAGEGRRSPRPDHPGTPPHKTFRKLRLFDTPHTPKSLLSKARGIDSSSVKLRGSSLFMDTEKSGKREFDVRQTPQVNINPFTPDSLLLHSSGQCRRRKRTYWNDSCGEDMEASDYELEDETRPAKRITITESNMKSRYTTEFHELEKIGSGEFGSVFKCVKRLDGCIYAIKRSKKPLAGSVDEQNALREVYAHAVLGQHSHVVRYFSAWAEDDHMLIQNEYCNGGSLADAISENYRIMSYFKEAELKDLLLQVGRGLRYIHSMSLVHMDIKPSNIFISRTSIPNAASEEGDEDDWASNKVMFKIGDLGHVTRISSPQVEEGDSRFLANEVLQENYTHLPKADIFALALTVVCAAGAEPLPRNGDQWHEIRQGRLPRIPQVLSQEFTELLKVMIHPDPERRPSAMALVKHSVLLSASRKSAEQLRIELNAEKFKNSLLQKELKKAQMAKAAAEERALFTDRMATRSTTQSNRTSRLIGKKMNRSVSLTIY
# Protocol: The tested compounds were dissolved in DMSO to make a 10 mM stock solution, which was further diluted to a drug solution of 25 µM. […] Transfer 20 nL compound to 384 assay plate by Echo 655. […] 8 μL of kinase detection reagent was added to the well, and incubated for 40 min at 25°C. Read the RLU (relative light-emitting unit) signal using the BMG multifunction microplate reader, and the signal intensity is used to characterize the degree of kinase activity. […] Staurosporine is a prototypical ATP-competitive kinase inhibitor in that it binds to many kinases with high affinity. The inhibition rates were calculated using the equations (X: log of inhibitor concentration; Y: % Inhibition). Assays were performed on three independent experiments. Y=Bottom+Top – Bottom/(1+10^ (LogIC50 – X×hillslope))
# A549 cells [4] = experiment: Anti-proliferation activity assay (CCK-8); type: cell-based; conditions: Homo sapiens, 72 h
# Protocol: (§4) Anti-proliferation activity assay was detected by Cell Counting Kit-8 detection kit (CCK-8, #K1018) provided by Apexbio (United States). In brief, cells were seeded in 96-wells plates at a density of 3 × 10^3/well for 24 h. Then, cells were treated with indicated concentrations of compounds for 72 h. Supernatant was totally removed, and 100 μL of CCK-8 solution was added to each well and cultured for another 1 h at 37°C. The absorbance of plates was measured by SpectraMax M2 (Molecular Devices, San Jose, CA, United States) at 450 nm. […] Assays were performed on three independent experiments.
# Bel-7402 cells = experiment: Anti-proliferation activity assay (CCK-8); type: cell-based; conditions: Homo sapiens, 72 h
# Protocol: as §4
# HuH-7 cells = experiment: Anti-proliferation activity assay (CCK-8); type: cell-based, human
# Protocol: as §4
# PC9 cells [5] = experiment: Cell cycle analysis (PI staining flow cytometry); type: cell-based, human; conditions: 500 nM, 24 h, compared to blank group
# Protocol: as §3, §2
# PC9 cells [6] = experiment: Anti-proliferation activity assay (CCK-8); type: cell-based; conditions: Homo sapiens, PC-9, 72 h
# Protocol: as §4
compound,measurement,setting,value
"C=CCn1c(=O)c2cnc(Nc3ccc(N4CCN(C)CC4)cc3)nc2n1-c1cccc(C(C)(C)O)n1 [AZD1775, Adavosertib, reference compound]",Q2% (late apoptosis rate),A549 cells [1],5.52%
same,Q3% (early apoptosis rate),A549 cells [1],11.1%
same,Q4 (flow cytometry quadrant),A549 cells [1],83.3
same,percentage of apoptotic cells (early apoptosis + late apoptosis),A549 cells [1],16.62%
same,Q1 (flow cytometry quadrant),PC9 cells [2],0.015
same,Q2% (late apoptosis rate),PC9 cells [2],5.20%
same,Q3% (early apoptosis rate),PC9 cells [2],22.0%
same,Q4 (flow cytometry quadrant),PC9 cells [2],72.8
same,percentage of apoptotic cells (early apoptosis + late apoptosis),PC9 cells [2],27.20%
same,cell cycle distribution,A549 cells [3],no significant change
"CCN1CCN(Cc2ccc(-c3cc4c(N[C@H](C)c5ccccc5)ncnc4[nH]3)cc2)CC1 [Compound 2, AEE788]",IC50,WEE1 kinase,103 nM
same,Inhibition Rate,WEE1 kinase,134.70 ± 1.61%
"CNS(=O)(=O)c1ccccc1Nc1nc(Nc2ccc(N3CCN(C)CC3)cc2OC)ncc1Cl [Compound 3, ALK inhibitor 2]",IC50,WEE1 kinase,988 nM
same,Inhibition Rate,WEE1 kinase,127.17 ± 1.08%
"CNC(=O)c1ccccc1Nc1nc(Nc2ccc(N3CCN(CCCN)CC3)cc2)ncc1Cl [Compound 4, GSK3182571]",IC50,WEE1 kinase,1.07 nM
same,Inhibition Rate,WEE1 kinase,126.59 ± 1.66%
same,IC50,A549 cells [4],5170 nM
same,IC50,Bel-7402 cells,147 nM
same,IC50,HuH-7 cells; 72 h,875 nM
same,IC50,"HuH-7 cells; Homo sapiens, Huh-7, 72 h",880 nM
same,Q2% (late apoptosis rate),A549 cells [1],8.55%
same,Q3% (early apoptosis rate),A549 cells [1],9.18%
same,Q4 (flow cytometry quadrant),A549 cells [1],82.2
same,percentage of apoptotic cells (early apoptosis + late apoptosis),A549 cells [1],17.73%
same,Q1 (flow cytometry quadrant),PC9 cells [2],0.014
same,Q2% (late apoptosis rate),PC9 cells [2],4.55%
same,Q3% (early apoptosis rate),PC9 cells [2],80.2%
same,Q4 (flow cytometry quadrant),PC9 cells [2],15.2
same,percentage of apoptotic cells (early apoptosis + late apoptosis),PC9 cells [2],84.75%
same,cell cycle distribution,A549 cells [3],no significant change
same,proportion of cells in the G1 phase,PC9 cells [5],significantly increased
same,proportion of cells in the G2 phase,PC9 cells [5],did not change significantly
"CNC(=O)c1nn(C)c2c1C(C)(C)Cc1cnc(Nc3ccc(N4CCN(C)CC4)cc3)nc1-2 [Compound 5, Milciclib]",IC50,WEE1 kinase,3.77 nM
same,Inhibition Rate,WEE1 kinase,137.84 ± 1.08%
same,IC50,PC9 cells [6],8880 nM
same,IC50,"HuH-7 cells; Homo sapiens, Huh-7, 72 h",80000 nM
"CN1CCCN(C(=O)c2cccc(-c3ccc(/C=C4/C(=O)Nc5ccc(Cl)cc54)o3)c2)CC1 [Compound 6, CX-6258 hydrochloride]",inhibition at 25 µM,WEE1 kinase,24.8 ± 2.33%
"CCN1CCN(C(=O)Cc2ccc(Nc3ncc(F)c(Nc4ccc(C(=O)Nc5ccccc5Cl)cc4)n3)cc2)CC1 [Compound 8, TCS7010]",IC50,WEE1 kinase,797 nM
same,Inhibition Rate,WEE1 kinase,95.45 ± 2.24%
same,inhibition at 25 µM,WEE1 kinase,~100%
"C[C@@H](Oc1ccc2[nH]nc(/C=C/c3cnn(CCO)c3)c2c1)c1c(Cl)cncc1Cl [Compound 9, LY2874455]",inhibition at 25 µM,WEE1 kinase,58.2 ± 4.03%
"COc1cc(-c2cc(-c3ccc(N4CCNCC4)cc3)cnc2C)cc(OC)c1OC [Compound 10, LDN-214117]",inhibition at 25 µM,WEE1 kinase,32.77 ± 0.22%
Denfivontinib [Compound 1],Inhibition Rate,WEE1 kinase,64.18 ± 1.16%
